Measurements as given in ChEMBL document CHEMBL2146452, “Creation of readily accessible and orally active analogue of cortistatin a” (ACS Med Chem Lett, 2012).
The source made the active and inactive calls. No cut-off for these calls is given here.

Tests used:
Mus musculus [1] = test: Toxicity in S180 cells xenografted ddY mouse assessed as diarrhea up to 100 mg/kg, po administered QOD for 14 days; type: organism-based, CCRF S-180; design: dose 100 mg/kg, route oral; conditions: in vivo, 336 h
KB 3-1 = test: Selectivity index, ratio of IC50 for human KB3-1 cells to IC50 for HUVEC
NHDF = test: Antiproliferative activity against human NHDF cells; type: cell-based
[2] = Antiproliferative activity against mouse Neuro2a cells; type: cell-based; conditions: N2a
[3] = Antiproliferative activity against human KB3-1 cells after 72 hrs by WST8 assay; type: cell-based; conditions: KB 3-1, 72 h
HUVEC = test: Antiproliferative activity against HUVEC after 72 hrs by WST8 assay; type: functional, cell-based; conditions: Homo sapiens
Mus musculus [4] = test: Toxicity in S180 cells xenografted ddY mouse assessed as body weight loss up to 100 mg/kg, po administered QOD for 14 days relative to vehicle-treated control; type: organism-based, CCRF S-180; design: dose 100 mg/kg, route oral; conditions: in vivo, 336 h
K562 = test: Antiproliferative activity against human K562 cells; type: cell-based
CCRF S-180 [5] = test: Antitumor activity against mouse S180 cells xenografted in ddY mouse assessed as tumor growth inhibition at >25 mg/kg, po administered QOD for 14 days relative to vehicle-treated control; type: functional
Mus musculus [6] = test: Antiangiogenic activity in ddY mouse assessed as inhibition of bFGF-induced capillary formation in matrigel plug measured as hemoglobin level at 5 to 25 mg/kg, po administered QOD for 10 days by Drabkin reagent-based assay; type: functional, organism-based
CCRF S-180 [7] = test: Antitumor activity against mouse S180 cells xenografted in ddY mouse assessed as tumor growth inhibition at >5 mg/kg, po administered QOD for 14 days relative to vehicle-treated control; type: functional, organism-based
CCRF S-180 [8] = test: Antitumor activity against mouse S180 cells xenografted in po dosed ddY mouse assessed as tumor growth inhibition; type: functional, organism-based

Structure (SMILES) | Activity (Mus musculus [1]) | Ratio IC50 (KB 3-1) | IC50 (NHDF) [µM] | IC50 [2] [µM] | IC50 [3] [µM] | IC50 (HUVEC) [µM] | Activity (Mus musculus [4]) | IC50 (K562) [µM] | growth inhibition (GI) (CCRF S-180 [5]) [%] | inhibition (Mus musculus [6]) | growth inhibition (GI) (CCRF S-180 [7]) | growth inhibition (GI) (CCRF S-180 [8])
C[C@]12CCC3=CC4=C(CCCC4=O)O[C@H]3[C@@H]1CC[C@@H]2c1ccc2ccncc2c1 | Non-toxic | >100 | 4 | 10.5 | 10.5 | 0.035 | Non-toxic | 5 | 90 | Active | Active | 
CN(C)C1CC=C(/C=C2/CC[C@@]3(C)[C@@H](CC[C@@H]3c3ccc4ccncc4c3)C2)CC1 (some centres undefined) |  | 9 |  |  | 18 | 2 |  |  |  |  |  | 
CN(C)c1ccc(/C=C2/CC[C@@]3(C)[C@@H](CC[C@@H]3c3ccc4ccncc4c3)C2)cc1 |  | 1.5 |  |  | 20 | 15 |  |  |  |  |  | 
C[C@]12C=CC3=CC4=C(CCCC4=O)O[C@H]3[C@@H]1CC[C@@H]2c1ccc2ccncc2c1 |  | >100 | 10.5 | 10.5 | 10.5 | 0.1 |  | 6 |  |  |  | Active
